The record followed here is patent US20240174684A1, “INHIBITORS OF cGAS ACTIVITY AS THERAPEUTIC AGENTS” (BELLBROOK LABS, LLC, priority 2021, published 2024).

Like-named read-outs stand apart in the source and are kept apart here.

One data set deals with MDR1 (P-glycoprotein). The data set is described as follows: MDCK-MDR1 permeability A→B. Format: in vitro ADME, Canine. As to conditions: dog; MDCK cells expressing human MDR1, A→B; read-out: MDCK-MDR Permeability A→B. As for the experimental part:
(§1) ADME studies: Compound A and the compounds of the disclosure were tested for aqueous solubility (KSOL), metabolic stability (human and mouse […]) and permeability (Caco-2 and/or MDR1-MDCK cells) to provide an initial indication of oral bioavailability.
(§2) The favorable physicochemical properties are reflected in promising results in in vitro ADME tests. […] Metabolic stability, which was routinely measured with mouse and human hepatocytes, is outstanding, with t, greater than 2 hours for all of the compounds of the disclosure in which it has been measured. Cell permeability was measured using MDCK cells expressing human MDR1 (P-glycoprotein) to assess passive permeability as well as active transport out of the cell. […] Numerous compounds in Table 1 meet these permeability criteria, which is consistent with their design for TPSA <140 Å^2 and increased lipophilicity.
(§3) The MDCK-MDR1 permeability A ->B is shown in Table 2 below, where A represents 5-10 cm/s×10^−6; B represents 1-5 cm/s×10^−6; and C represents <1 cm/ss×10^−6. The metabolic stability half time, in both mouse and human hepatocytes, is also shown in Table 2 below, where A′ represents 100-200 minutes; B′ represents 200-300 minutes; and C′ represents >300 minutes.

The target of the next data set is cGAS (Homo sapiens, UniProt Q8N884). As to the kind of experiment: Transcreener cGAS enzymatic assay (FP). It counts as biochemical. Here is the method:
Structural, biochemical and biophysical analysis and selectivity profiling: Potency and MOA studies, including Mn^2+ sensitivity, were performed using the Transcreener cGAS enzymatic assay, which is manufactured at BellBrook Labs (Fitchburg, Wisconsin, USA). This homogenous cGAS enzymatic assay was developed with fluorescence polarization (FP) and time-resolved Forster resonance energy transfer (TR-FRET) readouts, as described in International Patent Publication WO 2020/142729, incorporated by reference herein in its entirety. Plates are read on a PHERAstar FSX multimode reader (BMG). The compounds of the disclosure were tested for inhibition of cGAS ([…]) using this cGAS enzymatic assay under standard conditions (100 μM ATP and GTP, 62.5 nM bp ISD, 60 minute reactions), high ATP and GTP (1 mM) to mimic physiological conditions, in the presence of 200 μM MnCl2, and with mouse cGAS under standard conditions.
The IC50 values for FP under standard and under physiological conditions were determined for several exemplary compounds of the invention. The relative activities for FP Standard IC50 are shown in Table 2 below, where A represents <50 nM; B represents 50-100 nM; C represents 100-200 nM; D represents 200 nM-1μM; and E represents 1-10 μM. For the relative activities for FP Physiological IC50, A′ represents <200 nM; B′ represents 200-500 nM; C′ represents 500 nM-1μM; D′ represents 1-5 μM; and E′ represents >5 μM.

Data set [1] concerns IFNβ production in THP-1 cells. The data set is described as follows: IFNβ ELISA in THP-1 cells. As to conditions: Homo sapiens; THP-1 cells. It counts as cell-based, human. The text has this:
(§4) Cellular assays: The human monocyte cell line THP-1 and human primary PBMCs were used to evaluate the cellular activity of compounds with good biochemical potency. These cells produce a robust cGAS/STING-dependent type I IFN response when stimulated with dsDNA and other pathogen-associated molecular patterns, which was detected using a standard ELISA for IFNβ (R&D Systems). The TBK1 inhibitor, BX-795, which acts downstream of cGAS/STING, was used as a probe.
CETSA was also used to confirm that the compounds are binding to cGAS in cells; THP-1 cells are used for this analysis. Compounds were tested in dose response mode by incubating with cells for 1.5 hours at 37° C., followed by pelleting and re-suspending in PBS, heating to 51.5° C. for 3 min and cooling to room temp. Cells were then lysed, debris, including denatured cGAS, was pelleted and the supernatant was analyzed for soluble cGAS by Western Blot using anti-cGAS primary Ab (Cell Signaling). Band intensity was analyzed using Image J software. Stimulation with cGAMP directly activates STING, circumventing cGAS; this was used to determine if compounds had effects on downstream components of cGAS/STING signaling. The IFN-6 ELISA was used as the primary measure of cellular potency and selectivity (Table 3) and used the reporter gene assays for assessing off-target activity with other pattern recognition receptors.
(§5) The ICso values for IFNB ELISA stimulated with THP-1, PBMC, DNA, and cGAMP were determined for several exemplary compounds of the invention, and are provided in Table 3 where A represents <1 μM; B represents 1-2.5 μM; C represents 2.5-10 μM; D represents 10-20 μM; and E represents >20 μM.
On the technique in general: An ELISA detects its analyte on a solid surface through an enzyme-linked reagent.

Data set [2] deals with IFN-β production in PBMCs. The data set is described as follows: IFNβ ELISA in human primary PBMCs. It counts as cell-based. As to conditions: PBMC.
Source text: as §4, §5
The reporter gene assays were used to assess off-target activity with IRF30Luc (RIG-1) or NFKB (TLR4); CellTiter Glo (ATP levels) and Presto Blue (reducing equivalents) were used to assess cytotoxicity; all assays were performed in dose response mode. […] The inventors recently began using human PBMCs to assess cellular potency in a more physiologically relevant context.

In data set [3] the test system is MDCK cells expressing human MDR1 (P-glycoprotein). The data set is described as follows: MDCK-MDR1 permeability A→B. It counts as in vitro ADME, Canine. As for the experimental part: as §1, §2, §3
The mark [4] stands for this setting: high ATP and GTP (1 mM) to mimic physiological conditions, read-out: IC50 FP Physiological.
Setting [5] is: standard conditions: 100 μM ATP and GTP, 62.5 nM bp ISD, 60 minute reactions, read-out: IC50 FP Standard.

cGAS, sequence (Q8N884 whole entry): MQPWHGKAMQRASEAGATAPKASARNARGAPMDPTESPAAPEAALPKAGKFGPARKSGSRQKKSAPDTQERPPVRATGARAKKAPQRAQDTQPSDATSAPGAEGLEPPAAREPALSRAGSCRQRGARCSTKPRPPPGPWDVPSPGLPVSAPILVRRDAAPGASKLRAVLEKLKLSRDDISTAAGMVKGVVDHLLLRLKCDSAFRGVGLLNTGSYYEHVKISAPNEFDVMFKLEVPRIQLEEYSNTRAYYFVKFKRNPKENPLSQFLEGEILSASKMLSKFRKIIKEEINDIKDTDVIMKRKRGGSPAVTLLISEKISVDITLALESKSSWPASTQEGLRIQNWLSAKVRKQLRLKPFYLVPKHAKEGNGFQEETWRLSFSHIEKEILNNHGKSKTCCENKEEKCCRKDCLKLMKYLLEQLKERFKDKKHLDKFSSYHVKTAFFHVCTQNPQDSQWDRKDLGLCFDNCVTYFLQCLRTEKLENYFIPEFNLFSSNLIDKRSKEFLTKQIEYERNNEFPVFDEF

With `Cc1nc(N2C[C@@H](CC(=O)Nc3ccc4cccnc4c3)C[C@H]2C(=O)O)c2oc3ccccc3c2n1` [Compound 35, (28,4R)-1-(2-methylbenzofuro[3,2-d]pyrimidin-4-yl)-4-(2-oxo-2-(quinolin-7-ylamino)ethyl)pyrrolidine-2-carboxylic acid], the Papp A→B with MDR1 (P-glycoprotein) is 1 to 5 ×10⁻⁶ cm/s. The IC50 at cGAS (setting [4]) was 500 to 1000 nM; at cGAS (setting [5]), less than 50 nM; in data set [1] it was 2500 to 10000 nM; in data set [2], 2500 to 10000 nM.

`Cc1nc(N2C[C@@H](CC(=O)Nc3ccc(N4CCCCC4)cc3)C[C@H]2C(=O)O)c2oc3ccccc3c2n1` [Compound 7, (2S,4R)-1-(2-methylbenzofuro[3,2-d]pyrimidin-4-yl)-4-(2-oxo-2-((4-(piperidin-1-yl)phenyl)amino)ethyl)pyrrolidine-2-carboxylic acid]: the Papp A→B in the data set with MDR1 (P-glycoprotein) was 1 to 5 ×10⁻⁶ cm/s. Moreover, the IC50 on cGAS (setting [4]) is 1000 to 5000 nM; on cGAS (setting [5]), 200 to 1000 nM; in data set [1] it was 10000 to 20000 nM; in data set [2], 10000 to 20000 nM.

On to `Cc1nc(N2C[C@@H](CC(=O)Nc3ccc(-c4ccc(N)nc4)cc3)C[C@H]2C(=O)O)c2oc3ccccc3c2n1` [Compound 40, (2S,4R)-4-(2-((4-(6-aminopyridin-3-yl)phenyl)amino)-2-oxoethyl)-1-(2-methylbenzofuro[3,2-d]pyrimidin-4-yl)pyrrolidine-2-carboxylic acid], for which the IC50 at cGAS (setting [4]) is 200 to 500 nM; at cGAS (setting [5]) it was less than 50 nM; in data set [1], 10000 to 20000 nM; in data set [2], greater than 20000 nM.

`Cc1nc(N2C[C@@H](CC(=O)Nc3ccc(-c4ccnc(N)c4)cc3)C[C@H]2C(=O)O)c2oc3ccccc3c2n1` [Compound 41, (28.4R)-4-(2-((4-(2-aminopyridin-4-yl)phenyl)amino)-2-oxoethyl)-1-(2-methylbenzofuro[3,2-d]pyrimidin-4-yl)pyrrolidine-2-carboxylic acid]: the IC50 at cGAS (setting [4]) was 500 to 1000 nM; on cGAS (setting [5]), 100 to 200 nM; in data set [1], greater than 20000 nM; in data set [2], greater than 20000 nM.

Turning to `Cc1nc(N2C[C@@H](CC(=O)Nc3ccc4cnccc4c3)C[C@H]2C(=O)O)c2oc3ccccc3c2n1` [Compound 33, (2S,4R)-4-(2-(isoquinolin-6-ylamino)-2-oxoethyl)-1-(2-methylbenzofuro[3,2-d]pyrimidin-4-yl)pyrrolidine-2-carboxylic acid], the “MDCK-MDR Permeability A→B” value in data set [3] was “C (C represents <1 cm/ss×10^−6)”. Further, the IC50 on cGAS (setting [4]) lay within 1000 to 5000 nM; on cGAS (setting [5]), 100 to 200 nM; in data set [1], 2500 to 10000 nM; in data set [2], 10000 to 20000 nM.

On to `Cc1nc(N2C[C@@H](CC(=O)Nc3ccc(-c4cccc(O)c4)cc3)C[C@H]2C(=O)O)c2oc3ccccc3c2n1` [Compound 51, (2S,4R)-4-(2-((3′-hydroxy-[1,1′-biphenyl]-4-yl)amino)-2-oxoethyl)-1-(2-methylbenzofuro[3,2-d]pyrimidin-4-yl)pyrrolidine-2-carboxylic acid], for which the IC50 on cGAS (setting [4]) is less than 200 nM; on cGAS (setting [5]), less than 50 nM; in data set [1], 10000 to 20000 nM; in data set [2], greater than 20000 nM.

Take `Cc1nc(N2C[C@@H](CC(=O)Nc3ccc(-c4ccc5cn[nH]c5c4)cc3)C[C@H]2C(=O)O)c2oc3ccccc3c2n1` [Compound 39, (28.4R)-4-(2-((4-(1H-indazol-6-yl)phenyl)amino)-2-oxoethyl)-1-(2-methylbenzofuro[3,2-d]pyrimidin-4-yl)pyrrolidine-2-carboxylic acid]: the IC50 was 500 to 1000 nM at cGAS (setting [4]), 100 to 200 nM on cGAS (setting [5]), 2500 to 10000 nM in data set [1] and 2500 to 10000 nM in data set [2].

For `Cc1ccc(NC(=O)C[C@H]2C[C@@H](C(=O)O)N(c3nc(C)nc4c3oc3ccccc34)C2)cc1` [Compound 15, (2S,4R)-1-(2-methylbenzofuro[3,2-d]pyrimidin-4-yl)-4-(2-oxo-2-(p-tolylamino)ethyl)pyrrolidine-2-carboxylic acid], the Papp A→B in the data set on MDR1 (P-glycoprotein) was 1 to 5 ×10⁻⁶ cm/s. The values for the IC50 (at cGAS (setting [4]); on cGAS (setting [5]); in data set [1]) were 1000 to 5000 nM, 200 to 1000 nM and greater than 20000 nM, respectively.

For the compound `Cc1nc(N2C[C@@H](CC(=O)Nc3ccc(-c4cccnc4N)cc3)C[C@H]2C(=O)O)c2oc3ccccc3c2n1` [Compound 43, (28.4R)-4-(2-((4-(2-aminopyridin-3-yl)phenyl)amino)-2-oxoethyl)-1-(2-methylbenzofuro[3,2-d]pyrimidin-4-yl)pyrrolidine-2-carboxylic acid], the IC50 on cGAS (setting [4]) is 500 to 1000 nM; at cGAS (setting [5]), 100 to 200 nM; in data set [1], greater than 20000 nM; in data set [2], greater than 20000 nM.

In the case of `Cc1nc(N2C[C@@H](CC(=O)Nc3cccc(F)c3)C[C@H]2C(=O)O)c2oc3ccccc3c2n1` [Compound 19, (2S,4R)-4-(2-((3-fluorophenyl)amino)-2-oxoethyl)-1-(2-methylbenzofuro[3,2-d]pyrimidin-4-yl)pyrrolidine-2-carboxylic acid], the Papp A→B with MDR1 (P-glycoprotein) fell in the range of 1 to 5 ×10⁻⁶ cm/s. Further, the IC50 at cGAS (setting [4]) is 1000 to 5000 nM; on cGAS (setting [5]), 200 to 1000 nM; in data set [1] it was 10000 to 20000 nM.

Take `Cc1nc(N2C[C@@H](CC(=O)Nc3ccc(-c4ccccc4)cn3)C[C@H]2C(=O)O)c2oc3ccccc3c2n1` [Compound 67, (2S,4R)-1-(2-methylbenzofuro[3,2-d]pyrimidin-4-yl)-4-(2-oxo-2-((5-phenylpyridin-2-yl)amino)ethyl)pyrrolidine-2-carboxylic acid]: the Papp A→B in the data set on MDR1 (P-glycoprotein) is 5 to 10 ×10⁻⁶ cm/s. Besides, the figures for the IC50 (at cGAS (setting [4]); on cGAS (setting [5]); in data set [1]) were 500 to 1000 nM, 50 to 100 nM and 2500 to 10000 nM, respectively.

`Cc1nc(N2C[C@@H](CC(=O)Nc3ccc(-c4cccc(N)n4)cc3)C[C@H]2C(=O)O)c2oc3ccccc3c2n1` [Compound 42, (2S,4R)-4-(2-((4-(6-aminopyridin-2-yl)phenyl)amino)-2-oxoethyl)-1-(2-methylbenzofuro[3.2-d]pyrimidin-4-yl)pyrrolidine-2-carboxylic acid]: the IC50 was 500 to 1000 nM on cGAS (setting [4]), 50 to 100 nM on cGAS (setting [5]), greater than 20000 nM in data set [1] and greater than 20000 nM in data set [2].

On to `Cc1nc(N2C[C@@H](CC(=O)Nc3ccccc3Cl)C[C@H]2C(=O)O)c2oc3ccccc3c2n1` [Compound 23, (28.4R)-4-(2-((2-chlorophenyl)amino)-2-oxoethyl)-1-(2-methylbenzofuro[3,2-d]pyrimidin-4-yl)pyrrolidine-2-carboxylic acid], for which, in the data set with MDR1 (P-glycoprotein), the Papp A→B fell in the range of 1 to 5 ×10⁻⁶ cm/s. Besides, the IC50 was greater than 5000 nM at cGAS (setting [4]), 200 to 1000 nM on cGAS (setting [5]) and greater than 20000 nM in data set [1].

What is called IC50 is the point on the concentration scale where inhibition reaches its midpoint.
